Laboratory results as given in US8937063B2 (Trustees of Tufts College, priority 2010, dated 2015).

Tests used:
[1] = Single oral dose pharmacokinetic comparison niacin, ARI-001, 2230C in wild type mice; assay type: in vivo, C57BL/6 mice; settings: single bolus oral gavage, mouse plasma; for AUC / Cmax / Tmax / half-life: C57BL/6; for half-life: read-out: half-life (t1/2) (converted)
Excerpt: Compound 2230C has the structure

[2] = system: high fat+fructose (HF/HS) diet hamsters; assay: 18-day oral dosing lipid study in HF/HS hamsters; assay type: in vivo, male Golden Syrian hamsters; settings: niacin 1200 mg/kg oral once daily 18 days, mean ± SD
Experimental: We examined the effects of diet modulation on the lipid profile of male Syrian Golden hamsters. Hamsters were ordered from Charles River Labs (Wilmington, Mass.), and requested to be 111-120 g in weight (correspondingly 56-61 days old). Hamsters were kept in cages of 4-5 per cage, and maintained on a standard light cycle of 12 hours on/12 hours off. All diets were obtained from Dyets, Inc. (Bethlehem, Pa.). “Normal Diet” was a standard rodent chow, catalog #5001, produced into pellets. Water and this standard chow diet were available to this group of hamsters ad libitum. Food was added to cages as needed, but no less frequently than twice per week. “High Fat Diet” was the same standard rodent chow supplemented with the following: 11.5% corn oil, 11.5% coconut oil, 0.5% cholesterol, and 0.25% deoxycholate. This is also available directly from Dyets, Inc., as catalog #611201. Both diets were ordered in 10 kg batches and stored at 4° C. for durations of the experiments (4-8 weeks), and at −20° C. for longer storage (up to six months). Water and this high fat diet were available to this group of hamsters ad libitum. The “High Fat+Fructose” group was fed the same fat-supplemented chow as the “high fat diet” group (#611201), but water was supplemented with fructose to a final concentration of 10%. Fructose was supplied from Now Foods (catalog #6931) and distributed by Lucky Vitamin (catalog #WB48432). Fructose water was prepared by adding 400 g of fructose to 4 L of water and stirring at room temperature until dissolved. Fructose water was stored at 4° C. until use. When provided to hamsters, fructose water was kept in a water bottle in the hamster cages at room temperature, exactly as standard water was. Fructose water and high fat chow were provided to this group of hamsters ad libitum. All animals remained on their respective diets for 21 days.
To begin this experiment, hamsters were randomly assigned to groups defined by the diet modifications above. After a fixed time, blood was collected from hamsters (N=3-4) to determine the lipid contents of the plasma. Because of limitations in the ability to adequately collect blood from hamsters, all blood samples were obtained via a terminal cardiac puncture preceded by asphyxiation with carbon dioxide. Blood (approximately 2 mL volume) was collected with a 22 G needle into a 5 mL syringe and transferred to a K2EDTA tube. The samples were kept on ice until centrifugation (14,000 rpm for 10 minutes at 4° C.) to separate plasma. Plasma was then aliquoted to tubes for storage at −80° C. until analysis.
Lipid parameters were determined using commercially available kits from Wako USA (Richmond, Va.) according to manufacturer's directions.
Male Golden Syrian hamsters were purchased from Charles River Labs (111-120 g, 56-61 days) and acclimated to a high fat+fructose (herein, referred to as “HF/HS”) diet as described above for two weeks. Hamsters were assigned into cohorts by body weight after two weeks' acclimation to the diet. […] Hamsters were dosed once per day for a total of 18 days. All animals remained on the above-described HF/HS diet throughout the dosing period. Dosing solutions for each cohort were prepared for 7 days at a time, although enough was prepared to last for 8 days. Each solution was stored at room temperature between administrations. Cohorts were defined according to Table 2 below.

[3] = Human clinical trial, single oral doses: serum concentration; assay type: in vivo; settings: in vivo, 1500 mg, read-out: Cmax
Experimental: Five periods of single dose escalation, with 8 subjects per cohort (6 drug: 2 placebo) involve a total 40 subjects. Appropriately blinded matching placebos are provided. Cohort 1 receives 500 mg of ARI-001 formulated as a single oral tablet, plus eleven placebo tablets; Cohort 2, […] of ARI-001, plus ten placebo tablets; Cohort 3, […] of ARI-001, plus eight placebo tablets; Cohort 4, […] of ARI-001, plus four placebo tablets; Corhort 5, […] of ARI-001. Placebo-only subjects take twelve placebo tablets. Each tablet is a compressed, film-coated tablet suitable for oral administration.
Pharmacokinetic samples are collected at 0-45 min pre-dose and at 0.5, 1, 1.5, 2, 4, 6, 8, 12, 24, 30 and 168 hours after dosing. […]
[…] […] Analysis of all samples is performed at a central laboratory.

Structure (SMILES)	AUC [1] [µM·h]	Cmax [1] [µM]	Tmax [1] [h]	half-life [1] [h]	AUC (% Niacin) [1] [% Niacin]	C24 h/Cmax [1] [%]	Cmax (% Niacin) [1] [% Niacin]	Cmax/AUC0-24 [1] [h⁻¹]	HDL/TC [2]	FFA (free fatty acids) ([2]; plasma) [mEq/L]	HDL ([2]; plasma) [mg/dL]	LDL ([2]; plasma) [mg/dL]	TG (triglycerides) ([2]; plasma) [mg/dL]	Cmax [3] [ng/mL]
O=C(O)c1ccc(CCN2CCCC2)nc1 [Compound 2230C]	686	126	0.31	3.47	5.8	2.1	3.0	0.18	–	–	–	–	–	–
O=C(O)c1cccnc1 [Niacin, nicotinic acid]	11700	4090	0.5	1.75	100	0.02	100	–	0.17 ± 0.11	1.82 ± 0.69	79 ± 26	170 ± 52	1555 ± 808	~30000
